{"source": "paper PMC10999543", "about": "“Identification of kinase modulators as host-directed therapeutics against intracellular methicillin-resistant Staphylococcus aureus” (Frontiers in Cellular and Infection Microbiology, 2024)", "key": {"intracellular MRSA": {"test_system": "intracellular MRSA", "type": "cell-based, Staphylococcus aureus", "settings": "for %GFP+ rep 1 / z-scoreMRSA+ rep 1: replicate 1; for %GFP+ rep 2 / z-scoreMRSA+ rep 2: replicate 2; for %GFP+ rep 3 / z-scoreMRSA+ rep 3: replicate 3; for z-scoreMRSA+ mean: mean of 3 replicates", "protocol": "(§1) The cells were resuspended in cell culture medium without antibiotics, seeded with 10,000 cells/well into Costar flat-bottom 96-well plates (Corning, Amsterdam, the Netherlands), and were incubated overnight at 37°C/5% CO2. The next day, the bacteria were centrifuged at ≥1800 g for 15 min and resuspended in cold PBS + 5 mM ethylenediaminetetraacetic acid (EDTA). The number of CFUs present in the bacterial suspension was estimated from the optical density at 600 nm (OD600) by assuming 8x10^8 CFUs to be present in a bacterial suspension with OD600 = 1, based on prior titrations. The bacterial suspension was diluted in cell culture medium without antibiotics and added to the cells. Accuracy of the multiplicity of infection (MOI) was validated by plating serial dilutions of the MRSA inoculums on Difco TS agar plates (BD Biosciences). The calculated mean MOI throughout all experiments was 6.8 ± 4.6 (mean ± SD). Infected cells were centrifuged for 3 min at 150 g and incubated for 1 hour at 37°C/5% CO2. Next, the cells were incubated with fresh cell culture medium supplemented with 30 µg/ml gentamicin sulphate (Lonza BioWhittaker, Basel, Switzerland) for 15 min at 37°C/5% CO2 to kill residual extracellular bacteria. Infected cells were incubated overnight at 37°C/5% CO2 in cell culture medium in the presence of kinase inhibitors and 5 µg/ml gentamicin sulphate-containing medium to prevent the growth of extracellular bacteria. The solvent of the compounds, DMSO, was used at equal % v/v as a negative control. For the screen, each compound was tested in triplicate, on separate cell culture plates, resulting in triplicate values for each kinase inhibitor.\n(§2) HeLa cells were harvested by trypsinization and fixed with 1% paraformaldehyde. Samples were measured on a FACSLyric with HTS extension (BD Biosciences). Flow cytometry data were analysed using FlowJo version 10 (TreeStar, Ashland, OR, USA). HeLa cells positive for GFP were gated to calculate the percentage of MRSA-infected cells. The cell count was used as surrogate readout of cell viability.\nTo identify potential “hit” compounds, the flow cytometry data were used to calculate standard z-scores using z = (x-μ)/σ – zneg, where x is total event count or the percent of GFP-positive cells from a single well, μ is the mean from wells of the plate, σ is the standard deviation of the plate and zneg is the mean z-score of the negative control of the plate (i.e., DMSO) ([Korbee et al., 2018]). To minimize the possibility that the presence of extreme values on a plate affected the z-scores, raw values that deviated two-fold from the negative controls were excluded when calculating plate means and standard deviations as used in the aforementioned formula. Compounds were considered a “hit” when z-scoreMRSA+ ≤ -2 and z-scoreHeLa ≥ -3 for cell count. In cases where compounds were screened twice, the average values were used to select hit compounds."}, "HeLa cells": {"test_system": "HeLa cells", "assay": "Compound screen by flow cytometry: HeLa cell count as surrogate readout of cell viability (z-scoreHeLa)", "type": "cell-based, human", "settings": "for cell count rep 1 / z-scoreHeLa rep 1: replicate 1; for cell count rep 2 / z-scoreHeLa rep 2: replicate 2; for cell count rep 3 / z-scoreHeLa rep 3: replicate 3; for z-scoreHeLa mean: mean of 3 replicates", "protocol": "as §1, §2\nTo minimize the possibility that the presence of extreme values on a plate affected the z-scores, raw values that deviated two-fold from the negative controls were excluded when calculating plate means and standard deviations as used in the aforementioned formula. Compounds were considered a “hit” when z-scoreMRSA+ ≤ -2 and z-scoreHeLa ≥ -3 for cell count. In cases where compounds were screened twice, the average values were used to select hit compounds."}, "[1]": {"settings": "PKIS compounds raw data, MRSA-infected HeLa cells"}, "[2]": {"settings": "Yes/No: effect without cell death"}, "[3]": {"settings": "compound screen, MRSA-infected HeLa cells"}, "[4]": {"settings": "PKIS compounds raw data, HeLa cell count"}, "[5]": {"settings": "compound screen, HeLa cell count"}, "[6]": {"settings": "PKIS compound screen raw data, MRSA-infected HeLa cells"}, "[7]": {"settings": "PKIS compound screen, MRSA-infected HeLa cells"}, "[8]": {"settings": "PKIS compound screen, Yes/No call"}, "[9]": {"settings": "PKIS compound screen raw data, HeLa cell count"}, "[10]": {"settings": "PKIS compound screen, HeLa cell count"}}, "note": "Like-named read-outs stand apart in the source and are kept apart here."}
{"smiles": "COc1cccc(-n2nc(C)c3c(N/N=C(\\C)c4ccncc4)ncnc32)c1", "note": "[GW809885X]", "values": [{"measurement": "%GFP+ rep 1", "setting": "intracellular MRSA; [1]", "result": 10.1, "unit": "%"}, {"measurement": "%GFP+ rep 2", "setting": "intracellular MRSA; [1]", "result": 9.2, "unit": "%"}, {"measurement": "%GFP+ rep 3", "setting": "intracellular MRSA; [1]", "result": 10.0, "unit": "%"}, {"measurement": "effect", "setting": "intracellular MRSA; Yes/No call from z-scoreMRSA+", "result": "No"}, {"measurement": "hit", "setting": "intracellular MRSA; [2]", "result": "No"}, {"measurement": "z-scoreMRSA+ mean", "setting": "intracellular MRSA; [3]", "result": -1.40}, {"measurement": "z-scoreMRSA+ rep 1", "setting": "intracellular MRSA; [3]", "result": -0.98}, {"measurement": "z-scoreMRSA+ rep 2", "setting": "intracellular MRSA; [3]", "result": -1.45}, {"measurement": "z-scoreMRSA+ rep 3", "setting": "intracellular MRSA; [3]", "result": -1.76}, {"measurement": "cell count rep 1", "setting": "HeLa cells; [4]", "result": 4315}, {"measurement": "cell count rep 2", "setting": "HeLa cells; [4]", "result": 6939}, {"measurement": "cell count rep 3", "setting": "HeLa cells; [4]", "result": 7689}, {"measurement": "cell death", "setting": "HeLa cells; Yes/No call from z-scoreHeLa", "result": "No"}, {"measurement": "z-scoreHeLa mean", "setting": "HeLa cells; [5]", "result": 0.65}, {"measurement": "z-scoreHeLa rep 1", "setting": "HeLa cells; [5]", "result": -0.42}, {"measurement": "z-scoreHeLa rep 2", "setting": "HeLa cells; [5]", "result": 2.02}, {"measurement": "z-scoreHeLa rep 3", "setting": "HeLa cells; [5]", "result": 0.35}]}
{"smiles": "CC(C)c1nc(-c2ccc(F)c(NS(=O)(=O)c3c(F)cccc3F)c2)c(-c2ccnc(Nc3ccc(N4CCOCC4)nc3)n2)s1", "note": "[GSK1804250A]", "values": [{"measurement": "%GFP+ rep 1", "setting": "intracellular MRSA; [6]", "result": 10.3, "unit": "%"}, {"measurement": "%GFP+ rep 2", "setting": "intracellular MRSA; [6]", "result": 10.8, "unit": "%"}, {"measurement": "%GFP+ rep 3", "setting": "intracellular MRSA; [6]", "result": 13.4, "unit": "%"}, {"measurement": "z-scoreMRSA+ mean", "setting": "intracellular MRSA; [7]", "result": -2.25}, {"measurement": "z-scoreMRSA+ rep 1", "setting": "intracellular MRSA; [7]", "result": -2.27}, {"measurement": "z-scoreMRSA+ rep 2", "setting": "intracellular MRSA; [7]", "result": -2.35}, {"measurement": "z-scoreMRSA+ rep 3", "setting": "intracellular MRSA; [7]", "result": -2.14}, {"measurement": "effect", "setting": "intracellular MRSA; [8]", "result": "No"}, {"measurement": "hit", "setting": "intracellular MRSA; PKIS compound screen, Yes/No call (effect without cell death)", "result": "No and Yes"}, {"measurement": "effect", "setting": "intracellular MRSA; PKIS compound screen, Yes/No call on z-scoreMRSA+", "result": "Yes"}, {"measurement": "z-scoreMRSA+ mean", "setting": "intracellular MRSA; PKIS compound screen", "result": -0.36}, {"measurement": "z-scoreMRSA+ rep 1", "setting": "intracellular MRSA; PKIS compound screen", "result": -0.40}, {"measurement": "z-scoreMRSA+ rep 2", "setting": "intracellular MRSA; PKIS compound screen", "result": -0.43}, {"measurement": "z-scoreMRSA+ rep 3", "setting": "intracellular MRSA; PKIS compound screen", "result": -0.25}, {"measurement": "%GFP+ rep 1", "setting": "intracellular MRSA; [1]", "result": 25.0, "unit": "%"}, {"measurement": "%GFP+ rep 2", "setting": "intracellular MRSA; [1]", "result": 23.8, "unit": "%"}, {"measurement": "%GFP+ rep 3", "setting": "intracellular MRSA; [1]", "result": 25.9, "unit": "%"}, {"measurement": "cell count rep 1", "setting": "HeLa cells; [9]", "result": 20970}, {"measurement": "cell count rep 2", "setting": "HeLa cells; [9]", "result": 16426}, {"measurement": "cell count rep 3", "setting": "HeLa cells; [9]", "result": 18426}, {"measurement": "z-scoreHeLa mean", "setting": "HeLa cells; [10]", "result": -1.06}, {"measurement": "z-scoreHeLa rep 1", "setting": "HeLa cells; [10]", "result": -1.56}, {"measurement": "z-scoreHeLa rep 2", "setting": "HeLa cells; [10]", "result": -1.52}, {"measurement": "z-scoreHeLa rep 3", "setting": "HeLa cells; [10]", "result": -0.10}, {"measurement": "cell death", "setting": "HeLa cells; [8]", "result": "No"}, {"measurement": "cell death", "setting": "HeLa cells; PKIS compound screen, Yes/No call on z-scoreHeLa", "result": "No"}, {"measurement": "z-scoreHeLa mean", "setting": "HeLa cells; PKIS compound screen", "result": -1.04}, {"measurement": "z-scoreHeLa rep 1", "setting": "HeLa cells; PKIS compound screen", "result": -1.27}, {"measurement": "z-scoreHeLa rep 2", "setting": "HeLa cells; PKIS compound screen", "result": -0.95}, {"measurement": "z-scoreHeLa rep 3", "setting": "HeLa cells; PKIS compound screen", "result": -0.90}, {"measurement": "cell count rep 1", "setting": "HeLa cells; [4]", "result": 3939}, {"measurement": "cell count rep 2", "setting": "HeLa cells; [4]", "result": 4582}, {"measurement": "cell count rep 3", "setting": "HeLa cells; [4]", "result": 4170}]}
{"smiles": "COc1cccc(NC(=O)NCCNc2ccnc(Nc3ccc(F)cc3)n2)c1", "note": "[GSK1379879A]", "values": [{"measurement": "%GFP+ rep 1", "setting": "intracellular MRSA; [6]", "result": 22.7, "unit": "%"}, {"measurement": "%GFP+ rep 2", "setting": "intracellular MRSA; [6]", "result": 22.0, "unit": "%"}, {"measurement": "%GFP+ rep 3", "setting": "intracellular MRSA; [6]", "result": 21.2, "unit": "%"}, {"measurement": "effect", "setting": "intracellular MRSA; Yes/No call from z-scoreMRSA+", "result": "No"}, {"measurement": "hit", "setting": "intracellular MRSA; [2]", "result": "No"}, {"measurement": "z-scoreMRSA+ mean", "setting": "intracellular MRSA; [3]", "result": -0.35}, {"measurement": "z-scoreMRSA+ rep 1", "setting": "intracellular MRSA; [3]", "result": -0.60}, {"measurement": "z-scoreMRSA+ rep 2", "setting": "intracellular MRSA; [3]", "result": -0.15}, {"measurement": "z-scoreMRSA+ rep 3", "setting": "intracellular MRSA; [3]", "result": -0.30}, {"measurement": "cell count rep 1", "setting": "HeLa cells; [9]", "result": 4370}, {"measurement": "cell count rep 2", "setting": "HeLa cells; [9]", "result": 3480}, {"measurement": "cell count rep 3", "setting": "HeLa cells; [9]", "result": 4436}, {"measurement": "cell death", "setting": "HeLa cells; Yes/No call from z-scoreHeLa", "result": "No"}, {"measurement": "z-scoreHeLa mean", "setting": "HeLa cells; [5]", "result": -0.38}, {"measurement": "z-scoreHeLa rep 1", "setting": "HeLa cells; [5]", "result": 0.0133}, {"measurement": "z-scoreHeLa rep 2", "setting": "HeLa cells; [5]", "result": -0.63}, {"measurement": "z-scoreHeLa rep 3", "setting": "HeLa cells; [5]", "result": -0.51}]}
